Reference: PubChem BioAssay AID1918949 (Molecular Pharmacology Branch, DTP, NCI, 2023)
Several values for one entry are separate records, joined by “and”; a condition that tells them apart may be missing. Equal entries are not always repeated.

System: K24384-001-R-PDC complex spheroid viability
Experiment: Anticancer human tumor K24384-001-R-PDC patient-derived pancreatic adenocarcinoma cell line growth inhibition
Details: for viability, T/C: stronger effect = lower value; active = viability on the fitted dose curve at most 10% of control; inactive = the rest
Excerpt: Multicellular complex tumor spheroid response to LSD1 Inhibitor Iadademstat in combination with a variety of drugs and investigational agents in selected tumor cell lines
The current study was undertaken to assess response to LSD1 inhibitors in combination with standard-of-care drugs and investigational agents in solid tumor complex spheroid models as well as in the K-562 leukemia. Complex spheroids include a stromal component modeled by human endothelial cells (HUVEC) and fibroblasts modeled by human mesenchymal stem cells (MSCs). The concentration ranges selected for each drug and investigational agent were based upon clinically achievable concentrations if the clinical Cmax of the agent was known.
Compounds. The drugs and investigational agents used in this study are listed on Table 1. All of the agents used, including staurosporine (NSC755774) and gemcitabine (NSC613327), were obtained from the Developmental Therapeutics Program, NCI. FDA-approved anticancer drugs are available from the NCI at http://dtp.nci.nih.gov/branches/dscb/oncology_drugset_explanation.html. Drugs and investigational agents were >95% pure by proton nuclear magnetic resonance (NMR) and liquid chromatography/mass spectrometry (LC/MS). Stock solutions were prepared at 400x in DMSO, stored at -70 degrees C, and diluted in fresh medium prior to their use. The final concentration of DMSO in cell culture wells never exceeded 0.25% (v/v). The FDA-approved anticancer drug set is available from the Developmental Therapeutics Program at https://dtp.cancer.gov/organization/dscb/obtaining/available_plates.htm. All drugs and investigational agents were tested over a range starting from a high concentration at or near the clinical Cmax and decreasing in half-log increments. If the clinical Cmax for an agent had not been determined, the highest concentration tested was 10 microM.
Cell Lines. The patient-derived cancer cell (PDC) lines: 292921-168-R-J2-PDC, K24384-001-R-PDC, and 521955-158-R2-J5-PDC pancreatic carcinomas, 556581-035-R-J1 ovarian carcinoma, 324938-238-R-J1-PDC, 855422-203-R-J1-PDC and 883617-216-R-J1-PDC urothelial bladder carcinomas, 743489-274-T-PDC renal cell carcinoma, 138582-R-J1 Merkel cell tumor, K60290-347-R-J1 and K57222-313-R-J1-PDC glioblastomas, 653999-131-R-J2-PDC, LG0703-F948-PDC, and 349418-098-R-PDC non-small cell lung carcinomas, 885512-296-R-J2-PDC, 171881-019-R-J1-PDC breast carcinomas and 186277-243-T-J2-PDC and 233499-124-R-J2-PDC colon carcinomas were obtained from the NCI Patient-Derived Models Repository (PDMR, https://pdmr.cancer.gov). The established cell lines NCI/ADR-RES (RRID:CVCL_14520 and OVCAR-5 (RRID:CVCL_1628) ovarian carcinomas, 786-O (RRID:CVCL_1051) and A498 (RRID:CVCL_A498) renal cell carcinoma, NCI-H211 (ATCC, cat. CRL-5824; RRID:CVCL_1529), NCI-H196 (ATCC, cat. CRL-5823, RRID:CVCL_1509), SW 1271 (ATCC, cat. CRL-2177, RRID:CVCL_1716) and NCI-H1876 (ATCC, cat. CRL-5902, RRID:CVCL_1503) small cell lung carcinomas, MDA-MB-231 (RRID:CVCL_0062) and MDA-MB-468 (RRID:CVCL_0419)breast carcinomas (10-12). Pooled donor human umbilical vein endothelial cells (HUVEC, Lonza, cat. CC-2519) and human mesenchymal stem cells (hMSC, Lonza, cat. PT-2501) were purchased from Lonza (Walkersville, MD).
Cell Culture. All cells were maintained in an incubator at 37 degrees C and 5% CO2 with 95% humidity. The PDC lines were cultured according to standard operating procedures established by the NCI PDMR (https://pdmr.cancer.gov). Briefly all PDCs were thawed and cultured in Matrigel-coated flasks prepared with a working solution of 1X Ham's F-12 nutrient mix, without supplementation (Invitrogen, Waltham, MA, cat. 11765054), 100 U/mL penicillin-streptomycin (Invitrogen, cat. 15140122), and 2.5% Matrigel (Corning Inc., Corning, NY, cat. 354248) for the first three passages. […]

[1] = curve of first compound, second compound 0.1 µM
[2] = curve of first compound, second compound 0.316 µM
[3] = curve of first compound, second compound 1 µM
[4] = curve of first compound, second compound 3.16 µM
[5] = curve of first compound, second compound 10 µM
[6] = second compound 0.1 µM, first compound 0.00949 µM
[7] = second compound 0.1 µM, first compound 0.03 µM
[8] = second compound 0.1 µM, first compound 0.0949 µM
[9] = second compound 0.1 µM, first compound 0.3 µM
[10] = second compound 0.316 µM, first compound 0.00949 µM
[11] = second compound 0.316 µM, first compound 0.03 µM
[12] = second compound 0.316 µM, first compound 0.0949 µM
[13] = second compound 0.316 µM, first compound 0.3 µM
[14] = second compound 1 µM, first compound 0.00949 µM
[15] = second compound 1 µM, first compound 0.03 µM
[16] = second compound 1 µM, first compound 0.0949 µM
[17] = second compound 1 µM, first compound 0.3 µM
[18] = second compound 3.16 µM, first compound 0.00949 µM
[19] = second compound 3.16 µM, first compound 0.03 µM
[20] = second compound 3.16 µM, first compound 0.0949 µM
[21] = second compound 3.16 µM, first compound 0.3 µM
[22] = second compound 10 µM, first compound 0.00949 µM
[23] = second compound 10 µM, first compound 0.03 µM
[24] = second compound 10 µM, first compound 0.0949 µM
[25] = second compound 10 µM, first compound 0.3 µM
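Note: spheroids exposed to agents for seven days before luminescence viability reading.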

CCN(c1cc(-c2ccc(CN3CCOCC3)cc2)cc(C(=O)NCc2c(C)cc(C)[nH]c2=O)c1C)C1CCOCC1 + NC1CC1c1ccc(-c2cccc(O)c2)cc1
inactive: viability, T/C [6] 113% | viability, T/C [7] 115% | viability, T/C [8] 102% | viability, T/C [9] 103% | viability, T/C (second compound 0.1 µM, first compound 0.949 µM) 98.9% | viability, T/C (second compound 0.1 µM, first compound 3 µM) 62.8% | viability, T/C [10] 113% | viability, T/C [11] 104% | viability, T/C [12] 118% | viability, T/C [13] 103% | viability, T/C (second compound 0.316 µM, first compound 0.949 µM) 94.2% | viability, T/C (second compound 0.316 µM, first compound 3 µM) 71.8% | viability, T/C [14] 100% | viability, T/C [15] 112% | viability, T/C [16] 107% | viability, T/C [17] 95.8% | viability, T/C (second compound 1 µM, first compound 0.949 µM) 96.7% | viability, T/C (second compound 1 µM, first compound 3 µM) 65.5% | viability, T/C [18] 109% | viability, T/C [19] 126% | viability, T/C [20] 108% | viability, T/C [21] 111% | viability, T/C (second compound 3.16 µM, first compound 0.949 µM) 96.2% | viability, T/C (second compound 3.16 µM, first compound 3 µM) 69.7% | viability, T/C [22] 127% | viability, T/C [23] 132% | viability, T/C [24] 109% | viability, T/C [25] 127% | viability, T/C (second compound 10 µM, first compound 0.949 µM) 104% | viability, T/C (second compound 10 µM, first compound 3 µM) 77.6%
> 3 µM: IC50 [1] | IC50 [2] | IC50 [3] | IC50 [4] | IC50 [5]

Nc1ccccc1NC(=O)c1ccc(CNC(=O)OCc2cccnc2)cc1
11.8% and 9.62%: viability, T/C (compound 0.949 µM)
0.438 µM and 0.432 µM: IC50 (curve of compound)
inactive: viability, T/C (compound 0.00949 µM) 95.6% and 102% | viability, T/C (compound 0.03 µM) 102% and 108% | viability, T/C (compound 0.0949 µM) 89.1% and 128% | viability, T/C (compound 0.3 µM) 69.4% and 70.9%
active: viability, T/C (compound 3 µM) 0.21% and 0.26%

Nc1ncn(C2CC(O)C(CO)S2)c(=O)n1 (centres undefined) + NC1CC1c1ccc(-c2cccc(O)c2)cc1
inactive: viability, T/C (second compound 0.1 µM, first compound 0.000949 µM) 102% | viability, T/C (second compound 0.1 µM, first compound 0.003 µM) 133% | viability, T/C [6] 101% | viability, T/C [7] 89.8% | viability, T/C [8] 67.3% | viability, T/C [9] 54.9% | viability, T/C (second compound 0.316 µM, first compound 0.000949 µM) 102% | viability, T/C (second compound 0.316 µM, first compound 0.003 µM) 97.1% | viability, T/C [10] 103% | viability, T/C [11] 87.1% | viability, T/C [12] 72.2% | viability, T/C [13] 52.1% | viability, T/C (second compound 1 µM, first compound 0.000949 µM) 124% | viability, T/C (second compound 1 µM, first compound 0.003 µM) 110% | viability, T/C [14] 99.2% | viability, T/C [15] 87.8% | viability, T/C [16] 73.1% | viability, T/C [17] 50.6% | viability, T/C (second compound 3.16 µM, first compound 0.000949 µM) 108% | viability, T/C (second compound 3.16 µM, first compound 0.003 µM) 113% | viability, T/C [18] 108% | viability, T/C [19] 108% | viability, T/C [20] 92.6% | viability, T/C [21] 56.2% | viability, T/C (second compound 10 µM, first compound 0.000949 µM) 136% | viability, T/C (second compound 10 µM, first compound 0.003 µM) 131% | viability, T/C [22] 120% | viability, T/C [23] 108% | viability, T/C [24] 95.3% | viability, T/C [25] 57.2%
> 0.3 µM: IC50 [1] | IC50 [2] | IC50 [3] | IC50 [4] | IC50 [5]

NC1CC1c1ccc(-c2cccc(O)c2)cc1 (centres undefined)
inactive: viability, T/C (compound 0.1 µM) 108%
> 10 µM: IC50 (compound alone, run of 02/21/2022)

CC(C)CC(NC(=O)C(Cc1ccccc1)NC(=O)c1cnccn1)B(O)O (centres undefined) + NC1CC1c1ccc(-c2cccc(O)c2)cc1
inactive: viability, T/C (second compound 0.1 µM, first compound 0.000316 µM) 85.9% | viability, T/C (second compound 0.316 µM, first compound 0.000316 µM) 95.9% | viability, T/C (second compound 1 µM, first compound 0.000316 µM) 92% | viability, T/C (second compound 3.16 µM, first compound 0.000316 µM) 85.5% | viability, T/C (second compound 10 µM, first compound 0.000316 µM) 59.5%
0.000518 µM: IC50 [1]
active: viability, T/C (second compound 0.1 µM, first compound 0.001 µM) 2.19% | viability, T/C (second compound 0.1 µM, first compound 0.00316 µM) 0.45% | viability, T/C (second compound 0.1 µM, first compound 0.01 µM) 0.17% | viability, T/C (second compound 0.1 µM, first compound 0.0316 µM) 0.24% | viability, T/C (second compound 0.1 µM, first compound 0.1 µM) 0.27% | viability, T/C (second compound 0.316 µM, first compound 0.001 µM) 1.68% | viability, T/C (second compound 0.316 µM, first compound 0.00316 µM) 2.35% | viability, T/C (second compound 0.316 µM, first compound 0.01 µM) 0.3% | viability, T/C (second compound 0.316 µM, first compound 0.0316 µM) 0.24% | viability, T/C (second compound 0.316 µM, first compound 0.1 µM) 1.4% | viability, T/C (second compound 1 µM, first compound 0.001 µM) 1.87% | viability, T/C (second compound 1 µM, first compound 0.00316 µM) 0.24% | viability, T/C (second compound 1 µM, first compound 0.01 µM) 0.3% | viability, T/C (second compound 1 µM, first compound 0.0316 µM) 0.15% | viability, T/C (second compound 1 µM, first compound 0.1 µM) 0.92% | viability, T/C (second compound 3.16 µM, first compound 0.001 µM) 1.44% | viability, T/C (second compound 3.16 µM, first compound 0.00316 µM) 0.32% | viability, T/C (second compound 3.16 µM, first compound 0.01 µM) 0.19% | viability, T/C (second compound 3.16 µM, first compound 0.0316 µM) 0.18% | viability, T/C (second compound 3.16 µM, first compound 0.1 µM) 0.22% | viability, T/C (second compound 10 µM, first compound 0.001 µM) 1.6% | viability, T/C (second compound 10 µM, first compound 0.00316 µM) 3.23% | viability, T/C (second compound 10 µM, first compound 0.01 µM) 1.83% | viability, T/C (second compound 10 µM, first compound 0.0316 µM) 1.14% | viability, T/C (second compound 10 µM, first compound 0.1 µM) 2.44%
0.000383 µM: IC50 [5]
0.000514 µM: IC50 [4]
0.000554 µM: IC50 [2]
0.000541 µM: IC50 [3]
